Data as given in patent US9801901B2, “Alginate oligomers for use in overcoming multidrug resistance in bacteria” (priority 2009, dated 2017).
≈ marks a conversion by molar mass, not a printed value. Where two headings read alike, the source gives them in different places. Marks after values point to notes of the source that are not given here.

What was measured:
[1] = system: PA01 Pseudomonas aeruginosa ATCC 15692; assay: MIC assay, two-fold antibiotic dilutions in CAMHB with alginate oligomer, no visible growth; format: cell-based; details: Pseudomonas aeruginosa, ATCC15692, Table 1, PA01, read-out: MIC
[2] = system: Pseudomonas aeruginosa ATCC 39324, mucoid type strain (R79); assay: MIC assay, CAMHB with alginate oligomer, no visible growth; format: cell-based; details: Pseudomonas aeruginosa, ATCC39324, Table 1, R79, read-out: MIC
[3] = system: Acinetobacter baumannii MDR ACB from Libya (V4); assay: as above; format: cell-based; details: for MIC: Table 1, V4 ACB (Libya)
Excerpt: The study described in Example 1 was repeated with the following strains of bacteria and antibiotics as detailed in Tables 4, 5 and 6.
The study described in Example 1 was repeated with the following strains of Acinetobacter baumannii, antibiotics and M-block alginate oligomer in place of OligoG CF-5/20 as detailed in Table 7. The M-block oligomer is 100% M with a DPn of 15 to 18,

[4] = system: V9 (Egypt) Acinetobacter baumannii; assay: as above; format: cell-based; details: Table 5, V9 MDR Acin. baum
[5] = system: V10 (Egypt) Acinetobacter lwoffii; assay: as above; format: cell-based; details: Table 5, V10 MDR Acin. lwoff
[6] = system: V12 5725 (Wales) Klebsiella pneumoniae; assay: as above; format: cell-based; details: Table 5, V12 MDR Kleb pneu
[7] = system: strains of Klebsiella pneumoniae displaying MDR phenotypes; assay: MIC-assay, Mueller-Hinton broth with G-block alginate, 384-well, OD600 (Table 10); format: cell-based
Excerpt: Minimum inhibitory concentration (MICs) of different antibiotics for strains of Klebsiella pneumoniae displaying MDR phenotypes in the presence of varying concentrations of OligoCF-5/20 (0-10%). (MIC values are expressed in μg ml^−1).

MDR Providencia stuartii = assay: MIC-assay, Mueller-Hinton broth with G-block alginate, 384-well, OD600 (Table 11); format: cell-based; details: Providencia stuartii (IR57 India, V7) MDR
Excerpt: (§1) Minimum inhibitory concentration (MICs) of different antibiotics for strains of E. coli and Providencia stuartii displaying MDR phenotypes in the presence of varying concentrations of OligoCF-5/20 (0-10%). (MIC values are expressed in μg ml^−1).

[8] = system: strains of E. coli displaying MDR phenotypes; assay: as above; format: cell-based; details: Escherichia coli, Escherichia coli (5702, Wales, V11) MDR, read-out: MIC
Excerpt: as §1

[9] = system: Staphylococcus aureus (MRSA) U50; assay: MIC-assay, Mueller-Hinton broth with G-block alginate, 384-well, OD600 (Table 12); format: cell-based; details: MRSA 1040s, U50 MDR, read-out: MIC
Excerpt: (§2) Minimum inhibitory concentration (MICs) of different antibiotics for strains of Streptococcus oralis and Staphylococcus aureus (MRSA) displaying MDR phenotypes in the presence of varying concentrations of OligoCF-5/20 (0-10%). (MIC values are expressed in μg ml^−1).

Streptococcus oralis = assay: as above; format: cell-based; details: Streptococcus oralis (5610, V17) MDR, read-out: MIC
Excerpt: as §2

[10] = system: Pseudomonas aeruginosa (R22, PSA, V1); assay: MIC-assay, Mueller-Hinton broth with G-block alginate, 384-well, OD600
[11] = system: Burkholderia cepacia (1322, V23); assay: as above
[12] = system: Acinetobacter baumannii (Egypt, V9); assay: as above
[13] = system: Acinetobacter lwoffii (Egypt, V10); assay: as above
[14] = Acinetobacter baumannii, OligoCF-5/20 0G, read-out: MIC
[15] = Table 8, G-block (OligoCF-5/20) 0%
[16] = Table 8, G-block (OligoCF-5/20) 2%
[17] = Table 8, G-block (OligoCF-5/20) 6%
[18] = Table 8, G-block (OligoCF-5/20) 10%
[19] = Table 9, G-block (OligoCF-5/20) 0%
[20] = Table 9, G-block (OligoCF-5/20) 2%
[21] = Table 9, G-block (OligoCF-5/20) 6%
[22] = Table 9, G-block (OligoCF-5/20) 10%

## CC(C)(O/N=C(\C(=O)N[C@@H]1C(=O)N2C(C(=O)[O-])=C(C[n+]3ccccc3)CS[C@H]12)c1csc(N)n1)C(=O)O [Ceftazidime]
[1]; OligoCF-5/20 0G
  MIC: < 1 µg/mL
[1]; OligoCF-5/20 +2% G
  MIC: < 1 µg/mL
[1]; OligoCF-5/20 +6% G
  MIC: < 1 µg/mL
[1]; OligoCF-5/20 +10% G
  MIC: < 1 µg/mL
[2]; OligoCF-5/20 0G
  MIC: < 1 µg/mL
[2]; OligoCF-5/20 +2% G
  MIC: < 1 µg/mL
[2]; OligoCF-5/20 +6% G
  MIC: < 1 µg/mL
[2]; OligoCF-5/20 +10% G
  MIC: < 1 µg/mL
[3]; [14]
  MIC: 512 µg/mL (≈ 937 µM)
[3]; Acinetobacter baumannii, OligoCF-5/20 +10% G, read-out: MIC
  MIC: 256 µg/mL (≈ 468 µM)
[3]; Example 1, Acinetobacter baumannii isolate
  effect in combination with alginate oligomers: more positive effect
[3]; OligoCF-5/20 +6% G
  MIC: 512 µg/mL (≈ 937 µM)
[3]; Table 3, MDR Acinetobacter baumannii isolate
  change of MIC in combination with azithromycin by alginate oligomer: reduced
[4]; [14]
  MIC: > 512 µg/mL
[4]; OligoCF-5/20 +2% G
  MIC: 512^† μg/ml
[4]; OligoCF-5/20 +6% G
  MIC: 512^† μg/ml
[4]; OligoCF-5/20 +10% G
  MIC: 256^† μg/ml
[5]; Acinetobacter lwoffii, OligoCF-5/20 0G, read-out: MIC
  MIC: 2 µg/mL (≈ 3.66 µM)
[5]; OligoCF-5/20 +2% G
  MIC: 2 µg/mL (≈ 3.66 µM)
[5]; OligoCF-5/20 +6% G
  MIC: <0.5^† μg/ml
[5]; OligoCF-5/20 +10% G
  MIC: <0.5^† μg/ml
[6]; Klebsiella pneumoniae, OligoCF-5/20 0G, read-out: MIC
  MIC: 64 µg/mL (≈ 117 µM)
[6]; OligoCF-5/20 +2% G
  MIC: 64 µg/mL (≈ 117 µM)
[6]; OligoCF-5/20 +6% G
  MIC: 16^† μg/ml
[6]; OligoCF-5/20 +10% G
  MIC: 16^† μg/ml
[7]; Klebsiella pneumoniae (5712, Wales, V12) MDR, G-block (OligoCF-5/20) 0%, read-out: MIC
  MIC: > 16 µg/mL
[7]; Klebsiella pneumoniae (5712, Wales, V12) MDR, G-block (OligoCF-5/20) 2%, read-out: MIC
  MIC: 8 µg/mL (≈ 14.6 µM)
[7]; Klebsiella pneumoniae (5712, Wales, V12) MDR, G-block (OligoCF-5/20) 6%, read-out: MIC
  MIC: > 16 µg/mL
[7]; Klebsiella pneumoniae (5712, Wales, V12) MDR, G-block (OligoCF-5/20) 10%, read-out: MIC
  MIC: > 16 µg/mL
[7]; Klebsiella pneumoniae (IR25, India, V6) MDR, G-block (OligoCF-5/20) 0%, read-out: MIC
  MIC: > 1020 µg/mL
[7]; Klebsiella pneumoniae (IR25, India, V6) MDR, G-block (OligoCF-5/20) 2%
  MIC: 1020 µg/mL (≈ 1870 µM)
[7]; Klebsiella pneumoniae (IR25, India, V6) MDR, G-block (OligoCF-5/20) 6%, read-out: MIC
  MIC: > 1020 µg/mL
[7]; Klebsiella pneumoniae (IR25, India, V6) MDR, G-block (OligoCF-5/20) 10%
  MIC: 1020 µg/mL (≈ 1870 µM)
[7]; Klebsiella pneumoniae (K3, India, V8) MDR, G-block (OligoCF-5/20) 0%, read-out: MIC
  MIC: > 1020 µg/mL
[7]; Klebsiella pneumoniae (K3, India, V8) MDR, G-block (OligoCF-5/20) 2%, read-out: MIC
  MIC: > 1020 µg/mL
[7]; Klebsiella pneumoniae (K3, India, V8) MDR, G-block (OligoCF-5/20) 6%, read-out: MIC
  MIC: > 1020 µg/mL
[7]; Klebsiella pneumoniae (K3, India, V8) MDR, G-block (OligoCF-5/20) 10%, read-out: MIC
  MIC: > 1020 µg/mL
MDR Providencia stuartii; G-block (OligoCF-5/20) 0%
  MIC: > 1020 µg/mL
MDR Providencia stuartii; G-block (OligoCF-5/20) 2%
  MIC: > 1020 µg/mL
MDR Providencia stuartii; G-block (OligoCF-5/20) 6%
  MIC: > 1020 µg/mL
MDR Providencia stuartii; G-block (OligoCF-5/20) 10%
  MIC: > 1020 µg/mL
[8]; G-block (OligoCF-5/20) 0%
  MIC: > 16 µg/mL
[8]; G-block (OligoCF-5/20) 2%
  MIC: > 16 µg/mL
[8]; G-block (OligoCF-5/20) 6%
  MIC: > 16 µg/mL
[8]; G-block (OligoCF-5/20) 10%
  MIC: > 16 µg/mL
[9]; G-block (OligoCF-5/20) 0%
  MIC: > 16 µg/mL
[9]; G-block (OligoCF-5/20) 2%
  MIC: 16 µg/mL (≈ 29.3 µM)
[9]; G-block (OligoCF-5/20) 6%
  MIC: 8 µg/mL (≈ 14.6 µM)
[9]; G-block (OligoCF-5/20) 10%
  MIC: 2 µg/mL (≈ 3.66 µM)
Streptococcus oralis; G-block (OligoCF-5/20) 0%
  MIC: 8 µg/mL (≈ 14.6 µM)
Streptococcus oralis; G-block (OligoCF-5/20) 2%
  MIC: 4 µg/mL (≈ 7.32 µM)
Streptococcus oralis; G-block (OligoCF-5/20) 6%
  MIC: 0.0312 µg/mL (≈ 0.0572 µM)
Streptococcus oralis; G-block (OligoCF-5/20) 10%
  MIC: 1 µg/mL (≈ 1.83 µM)
[10]; [15]
  MIC: > 16 µg/mL
[10]; [16]
  MIC: > 16 µg/mL
[10]; [17]
  MIC: > 16 µg/mL
[10]; [18]
  MIC: > 16 µg/mL
[11]; [15]
  MIC: > 16 µg/mL
[11]; [16]
  MIC: > 16 µg/mL
[11]; [17]
  MIC: 16 µg/mL (≈ 29.3 µM)
[11]; [18]
  MIC: 16 µg/mL (≈ 29.3 µM)
[12]; [19]
  MIC: > 16 µg/mL
[12]; [20]
  MIC: > 16 µg/mL
[12]; [21]
  MIC: > 16 µg/mL
[12]; [22]
  MIC: > 16 µg/mL
[13]; [19]
  MIC: 2 µg/mL (≈ 3.66 µM)
[13]; [20]
  MIC: 1 µg/mL (≈ 1.83 µM)
[13]; [21]
  MIC: 0.25 µg/mL (≈ 0.457 µM)
[13]; [22]
  MIC: 0.25 µg/mL (≈ 0.457 µM)
